# In the supplement of paper PMC10307832:
# Key:
# Experiment in all cases: relative viability (nuclei count vs DMSO), 5 days (fraction); higher = more cells survive
# Vismodegib + Bortezomib = compound: CS(=O)(=O)c1ccc(C(=O)Nc2ccc(Cl)c(-c3ccccn3)c2)c(Cl)c1 [Vismodegib] + CC(C)C[C@H](NC(=O)[C@H](Cc1ccccc1)NC(=O)c1cnccn1)B(O)O [Bortezomib] (partner 0.002 µM)
# Summary of the method: (§1)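 Lung cancer cell lines were seeded in 1536-well plates and dosed by pin tool the next day, with either a single drug or a fixed anchor-drug dose combined with five library-drug doses (not always all listed) spaced in √10 steps. Five days later, one step fixed the cells and stained their nuclei (final 0.05% Triton X-100, 1% formaldehyde, 1 ug/ml Hoechst), and nuclei were counted on 4× images. Relative viability is the nuclei count in treated wells divided by the count in vehicle wells, and each value is the median of duplicate plates.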
# Vismodegib + Linsitinib = compound: CS(=O)(=O)c1ccc(C(=O)Nc2ccc(Cl)c(-c3ccccn3)c2)c(Cl)c1 [Vismodegib] + C[C@]1(O)C[C@@H](c2nc(-c3ccc4ccc(-c5ccccc5)nc4c3)c3c(N)nccn32)C1 [Linsitinib] (partner 1 µM)
# Summary of the method: as §1
# Vismodegib + Olaparib = compound: CS(=O)(=O)c1ccc(C(=O)Nc2ccc(Cl)c(-c3ccccn3)c2)c(Cl)c1 [Vismodegib] + O=C(c1cc(Cc2n[nH]c(=O)c3ccccc23)ccc1F)N1CCN(C(=O)C2CC2)CC1 [Olaparib] (partner 8 µM)
# Summary of the method: as §1
# Ruxolitinib + Crizotinib = compound: N#CC[C@H](C1CCCC1)n1cc(-c2ncnc3[nH]ccc23)cn1 [Ruxolitinib] + C[C@@H](Oc1cc(-c2cnn(C3CCNCC3)c2)cnc1N)c1c(Cl)ccc(F)c1Cl [Crizotinib] (partner 1 µM)
# Summary of the method: as §1
cell line,measurement,setting,value
UMC-11,relative viability,Vismodegib + Bortezomib; first compound 0.08 µM,0.593
same,relative viability,Vismodegib + Bortezomib; first compound 0.253 µM,0.665
same,relative viability,Vismodegib + Bortezomib; first compound 0.8 µM,0.85
same,relative viability,Vismodegib + Bortezomib; first compound 2.53 µM,0.717
same,relative viability,Vismodegib + Bortezomib; first compound 8 µM,0.745
same,relative viability,Vismodegib + Linsitinib; first compound 0.08 µM,0.931
same,relative viability,Vismodegib + Linsitinib; first compound 0.253 µM,0.996
same,relative viability,Vismodegib + Linsitinib; first compound 0.8 µM,1.06
same,relative viability,Vismodegib + Linsitinib; first compound 2.53 µM,0.927
same,relative viability,Vismodegib + Linsitinib; first compound 8 µM,1
same,relative viability,Vismodegib + Olaparib; first compound 0.08 µM,0.416
same,relative viability,Vismodegib + Olaparib; first compound 0.253 µM,0.361
same,relative viability,Vismodegib + Olaparib; first compound 0.8 µM,0.376
same,relative viability,Vismodegib + Olaparib; first compound 2.53 µM,0.473
same,relative viability,Vismodegib + Olaparib; first compound 8 µM,0.373
same,relative viability,Ruxolitinib + Crizotinib; first compound 0.08 µM,0.622
same,relative viability,Ruxolitinib + Crizotinib; first compound 0.253 µM,0.616
same,relative viability,Ruxolitinib + Crizotinib; first compound 0.8 µM,0.736
same,relative viability,Ruxolitinib + Crizotinib; first compound 2.53 µM,0.736
same,relative viability,Ruxolitinib + Crizotinib; first compound 8 µM,0.668
